Source: US20050096395A1, “Methods of treating attention deficit/hyperactivity disorder (adhd)” (priority 2002, published 2005)

What was measured:
[1] = system: spontaneously hypertensive rats (SHR); assay: delayed gratification response paradigm in animal model of AD/HD; assay type: in vivo, rat; details: 5, 10, 25 or 50 mg/kg over twenty-one days
Experimental: In this study, spontaneously hypertensive rats (SHR) are used as an animal model for AD/HD. The SHR animal model is described in Russell et al., 2000, Behavioral Brain Research, 117: 69-74; Russell, 2001, Metab. Brain Dis., 16: 143-149; and Sagvolden et al., 1992, Behav. Neural Biol., 58: 103-112. The study consists of two groups of rats: normal and SHR. Each group is further divided into two subgroups: placebo and milnacipran. […] The milnacipran is administered to the rats over a period of twenty-one days. The rats are from the normal and SHR groups are trained in the delayed gratification response paradigm as described in […] et al., 1996, Pharmacology and Biochemistry and Behavior, 54: 149-157. In this paradigm, rats learn to choose between five food pellets delivered after 30 seconds and one food pellet delivered after 5 seconds. Normal rats learn to choose the five food pellets delivered after 30 seconds at a higher frequency.

[2] = system: rats described in McGrath et al., 2000; assay: animal model of tic disorder (McGrath et al., 2000); assay type: in vivo, rat; details: 5, 10, 25 or 50 mg/kg over twenty-one days, before vs after administration
Experimental: The rats are divided into two groups: placebo and milnacipran. […] The milnacipran is administered to the rats over a period of twenty-one days.

NMDA receptor = details: cited from earlier work
norepinephrine reuptake = details: cited from earlier work
[3] = system: patients with AD/HD and comorbid tic disorder; assay: randomized, double-blind, placebo-controlled trial in patients with AD/HD and comorbid tic disorder; assay type: in vivo, human; details: patients 7-15 years; 1.5-2 mg/kg/day; after 8 weeks of treatment
Source text: This study is a randomized, double-blind, placebo-controlled trial of parallel groups. […] Before entry into the study, each patient undergoes a detailed clinical evaluation by a psychiatrist and/or a psychologist. The diagnosis of AD/HD and comorbid tic disorder is made on the basis of this interview. Entry criteria includes age between 7 and 15 years, a DSM-IV diagnosis of AD/HD (any type), a DSM-IV tic disorder (any type), and a score of ≧1.5 standard deviation units for age and gender on the 10-item Conners hyperactivity index (Goyette et al., 1978, J. Abnorm. Child Psychol., 6: 221-236) rated by a teacher or parent. Exclusion criteria includes evidence of major depression, generalized anxiety disorder, separation anxiety disorder, or psychotic symptoms. Children with moderate or more severe tic symptoms (Yale Global Tic Severity Scale [[…] et al., 1989, J Am Acad Child Adolesc Psychiatry, 28: 566-573] total tic score of>22) or significant obsessive-compulsive symptoms (Children's Yale Brown Obsessive Compulsive Scale [[…] et al., 1997, J Am Acad Child Adolesc Psychiatry, 36: 844-852] total score>15) are also excluded. Before entry into the study the patients are tapered off their current medication. The participants in the study are randomly divided into two groups-milnacipran group and placebo control group. Each group consists of 5 patients. […] The patients in the placebo group are administered a placebo for 8 weeks. The patient's course is followed at visits with a primary clinician, who is blind to the patient's study group, every 2 weeks. The AD/HD rating scale, Clinical Global Impression global improvement score, and Yale Global Tic Severity Scale are used to follow the outcome measures. […] Each symptom was scored by the child's teacher from 0 to 3 (0=never [or rarely], 1=sometimes, 2=often, and 3=very often). […] A score of much improved or very much improved, reflecting meaningful improvement in AD/HD symptoms both at school and at home, is counted as a positive response. […]

CCN(CC)C(=O)[C@]1(c2ccccc2)C[C@@H]1CN (racemic) [milnacipran, cis-(±)-2-(aminomethyl)-N,N-diethyl-1-phenyl-yclopropanecarboxamide]
time required by SHR rats to choose five food pellets delivered after 30 seconds at a higher frequency [1]: reduced, approaching the amount of time required by the normal rats | abnormal behavior such as climbing/leaping, gnawing, and other tic-like behaviors [2]: reduces the abnormal behavior | IC50 (NMDA receptor): ~6.3 µM | IC50 (norepinephrine reuptake): […] | AD/HD Rating Scale [3]: improvement | Clinical Global Improvement Scale [3]: improvement | Yale Global Tic Severity Scale [3]: improvement
